ChEMBL document CHEMBL5058642, “Data for DCP probe TP-051” (2022)

How the values were obtained:
[1] = biological target: Vasopressin V1b receptor (Homo sapiens) (UniProt P47901); assay: Inhibition of Vasopressin V1B at 10 µM in the Eurofins-Panlabs radioligand binding assay (Eurofins_assay_287560); parameters: ligand concentration 1 nM; conditions: Compound concentration 10.0 uM
[2] = biological target: 5-hydroxytryptamine receptor 1B (Homo sapiens) (UniProt P28222); conditions: Compound concentration 10.0 uM
D(3) dopamine receptor = D(3) dopamine receptor (Homo sapiens, UniProt P35462); conditions: Compound concentration 10.0 uM
[3] = biological target: T1, Muscarinic acetylcholine receptor M1 (Homo sapiens) (UniProt P11229); conditions: Compound concentration 10.0 uM
T1 sequence (whole entry): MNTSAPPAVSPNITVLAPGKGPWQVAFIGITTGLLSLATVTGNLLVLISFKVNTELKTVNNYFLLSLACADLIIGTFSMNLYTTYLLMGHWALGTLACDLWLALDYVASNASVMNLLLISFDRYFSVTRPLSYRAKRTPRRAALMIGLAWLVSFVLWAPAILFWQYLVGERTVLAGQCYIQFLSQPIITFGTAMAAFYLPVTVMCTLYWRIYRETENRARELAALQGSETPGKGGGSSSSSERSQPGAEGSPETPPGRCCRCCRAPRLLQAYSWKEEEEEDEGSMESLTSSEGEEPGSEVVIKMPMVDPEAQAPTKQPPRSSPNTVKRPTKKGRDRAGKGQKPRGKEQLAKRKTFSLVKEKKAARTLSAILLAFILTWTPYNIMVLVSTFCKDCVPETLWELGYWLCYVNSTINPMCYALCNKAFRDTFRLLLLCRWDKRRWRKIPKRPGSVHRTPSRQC

[4] = biological target: Adenosine receptor A2a (Homo sapiens) (UniProt P29274); conditions: Compound concentration 10.0 uM
[5] = biological target: Vasopressin V1a receptor (Homo sapiens) (UniProt P37288); assay: Vasopressin V1A Eurofins-Panlabs radioligand binding assay; parameters: ligand concentration 0.01 nM; conditions: Compound concentration 10.0 uM
[6] = biological target: Estrogen receptor (Homo sapiens) (UniProt P03372); conditions: Compound concentration 10.0 uM
Rattus norvegicus [7] = species: Rattus norvegicus; assay: Adrenergic α1, Non-selective Eurofins-Panlabs radioligand binding assay; assay type: protein assay; conditions: Compound concentration 10.0 uM
[8] = biological target: T2, 5-hydroxytryptamine receptor 3A (Homo sapiens) (UniProt P46098); conditions: Compound concentration 10.0 uM
T2 sequence (whole entry): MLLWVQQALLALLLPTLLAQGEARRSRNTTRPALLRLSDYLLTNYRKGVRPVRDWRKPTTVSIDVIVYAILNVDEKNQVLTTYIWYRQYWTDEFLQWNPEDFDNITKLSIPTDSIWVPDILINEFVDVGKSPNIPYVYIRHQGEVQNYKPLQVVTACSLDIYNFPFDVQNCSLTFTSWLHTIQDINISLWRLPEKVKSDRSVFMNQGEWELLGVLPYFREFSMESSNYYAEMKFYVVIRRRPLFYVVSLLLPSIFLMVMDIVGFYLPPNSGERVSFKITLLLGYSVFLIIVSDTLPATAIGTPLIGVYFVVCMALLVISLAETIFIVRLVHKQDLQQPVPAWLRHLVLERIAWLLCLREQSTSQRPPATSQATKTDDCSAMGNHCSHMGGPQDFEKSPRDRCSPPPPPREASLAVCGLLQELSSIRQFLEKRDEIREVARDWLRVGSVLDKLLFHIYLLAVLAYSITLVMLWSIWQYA

[9] = biological target: 5-hydroxytryptamine receptor 4 (Homo sapiens) (UniProt Q13639); assay: Inhibition of Serotonin (5-Hydroxytryptamine) 5-HT4 at 10 µM in the Eurofins-Panlabs radioligand binding assay (Eurofins_assay_272000); conditions: Cavia porcellus; Compound concentration 10.0 uM
Sequence of 5-hydroxytryptamine receptor 4 (Homo sapiens) (Q13639 whole entry): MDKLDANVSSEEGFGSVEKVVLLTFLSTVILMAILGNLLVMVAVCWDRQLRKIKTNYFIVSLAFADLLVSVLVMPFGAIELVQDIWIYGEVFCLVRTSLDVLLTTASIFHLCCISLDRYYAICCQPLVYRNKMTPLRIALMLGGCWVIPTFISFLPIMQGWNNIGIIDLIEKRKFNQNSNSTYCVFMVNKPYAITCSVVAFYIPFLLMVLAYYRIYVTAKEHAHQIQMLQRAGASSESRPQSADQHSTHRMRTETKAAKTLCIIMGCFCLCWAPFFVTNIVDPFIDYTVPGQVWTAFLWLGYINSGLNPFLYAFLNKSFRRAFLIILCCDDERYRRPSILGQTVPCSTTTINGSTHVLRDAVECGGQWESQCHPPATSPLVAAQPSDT

[10] = biological target: Type-1 angiotensin II receptor (Homo sapiens) (UniProt P30556); assay: Angiotensin AT1 Eurofins-Panlabs radioligand binding assay; conditions: Compound concentration 10.0 uM
[11] = biological target: D(2) dopamine receptor (Homo sapiens) (UniProt P14416); conditions: Compound concentration 10.0 uM
Sequence of D(2) dopamine receptor (Homo sapiens) (P14416 whole entry): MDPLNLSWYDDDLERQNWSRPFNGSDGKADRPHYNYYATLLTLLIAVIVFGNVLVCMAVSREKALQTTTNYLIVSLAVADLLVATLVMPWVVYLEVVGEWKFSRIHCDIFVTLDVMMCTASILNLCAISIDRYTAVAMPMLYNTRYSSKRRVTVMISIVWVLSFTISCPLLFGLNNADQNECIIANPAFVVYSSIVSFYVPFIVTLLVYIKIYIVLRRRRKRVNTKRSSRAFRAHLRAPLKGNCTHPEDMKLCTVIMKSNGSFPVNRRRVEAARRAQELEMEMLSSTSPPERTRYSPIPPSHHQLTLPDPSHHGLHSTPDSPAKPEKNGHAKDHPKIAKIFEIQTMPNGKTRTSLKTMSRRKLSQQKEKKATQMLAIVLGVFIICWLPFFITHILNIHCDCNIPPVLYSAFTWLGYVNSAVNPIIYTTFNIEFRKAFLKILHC

[12] = biological target: Kappa-type opioid receptor (Homo sapiens) (UniProt P41145); conditions: Compound concentration 10.0 uM
Sequence of Kappa-type opioid receptor (Homo sapiens) (P41145 whole entry): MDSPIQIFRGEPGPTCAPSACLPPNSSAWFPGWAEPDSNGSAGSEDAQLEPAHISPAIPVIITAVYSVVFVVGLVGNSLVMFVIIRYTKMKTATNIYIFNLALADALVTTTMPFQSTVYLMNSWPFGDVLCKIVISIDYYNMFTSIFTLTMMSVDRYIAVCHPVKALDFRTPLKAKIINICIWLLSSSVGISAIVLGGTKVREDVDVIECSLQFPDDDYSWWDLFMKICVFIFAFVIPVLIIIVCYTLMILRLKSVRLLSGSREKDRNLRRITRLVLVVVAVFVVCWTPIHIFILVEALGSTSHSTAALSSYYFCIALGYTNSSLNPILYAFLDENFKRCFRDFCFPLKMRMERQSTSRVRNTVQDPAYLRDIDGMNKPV

Rattus norvegicus [13] = species: Rattus norvegicus; assay: Adrenergic α2, Non-selective Eurofins-Panlabs radioligand binding assay; assay type: protein assay; conditions: Compound concentration 10.0 uM
[14] = biological target: Glutamate receptor 2 (Homo sapiens) (UniProt P42262); conditions: Rattus norvegicus; Compound concentration 10.0 uM
Sequence of Glutamate receptor 2 (Homo sapiens) (P42262 whole entry): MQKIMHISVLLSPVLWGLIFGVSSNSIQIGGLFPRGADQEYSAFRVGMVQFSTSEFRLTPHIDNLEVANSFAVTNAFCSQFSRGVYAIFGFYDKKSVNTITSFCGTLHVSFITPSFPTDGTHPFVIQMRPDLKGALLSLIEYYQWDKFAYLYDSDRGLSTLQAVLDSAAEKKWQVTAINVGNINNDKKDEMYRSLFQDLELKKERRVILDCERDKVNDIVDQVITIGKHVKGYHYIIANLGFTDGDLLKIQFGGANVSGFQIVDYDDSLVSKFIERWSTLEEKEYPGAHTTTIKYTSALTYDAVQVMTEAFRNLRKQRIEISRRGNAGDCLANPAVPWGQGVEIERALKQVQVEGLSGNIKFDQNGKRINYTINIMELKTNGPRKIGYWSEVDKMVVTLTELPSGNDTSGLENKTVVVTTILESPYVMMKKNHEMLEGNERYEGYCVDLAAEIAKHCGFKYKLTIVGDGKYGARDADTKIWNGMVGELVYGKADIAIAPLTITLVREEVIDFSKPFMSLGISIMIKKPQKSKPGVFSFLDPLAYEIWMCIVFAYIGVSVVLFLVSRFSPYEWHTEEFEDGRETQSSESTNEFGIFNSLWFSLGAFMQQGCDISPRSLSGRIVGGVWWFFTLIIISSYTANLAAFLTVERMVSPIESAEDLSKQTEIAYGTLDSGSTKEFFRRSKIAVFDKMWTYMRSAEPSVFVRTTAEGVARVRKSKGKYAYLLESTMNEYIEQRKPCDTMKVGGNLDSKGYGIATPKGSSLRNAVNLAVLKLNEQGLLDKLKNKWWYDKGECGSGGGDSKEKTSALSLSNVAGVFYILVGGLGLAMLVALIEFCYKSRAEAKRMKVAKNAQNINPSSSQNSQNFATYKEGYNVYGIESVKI

[15] = biological target: Alpha-2C adrenergic receptor (Homo sapiens) (UniProt P18825); conditions: Compound concentration 10.0 uM
Sequence of Alpha-2C adrenergic receptor (Homo sapiens) (P18825 whole entry): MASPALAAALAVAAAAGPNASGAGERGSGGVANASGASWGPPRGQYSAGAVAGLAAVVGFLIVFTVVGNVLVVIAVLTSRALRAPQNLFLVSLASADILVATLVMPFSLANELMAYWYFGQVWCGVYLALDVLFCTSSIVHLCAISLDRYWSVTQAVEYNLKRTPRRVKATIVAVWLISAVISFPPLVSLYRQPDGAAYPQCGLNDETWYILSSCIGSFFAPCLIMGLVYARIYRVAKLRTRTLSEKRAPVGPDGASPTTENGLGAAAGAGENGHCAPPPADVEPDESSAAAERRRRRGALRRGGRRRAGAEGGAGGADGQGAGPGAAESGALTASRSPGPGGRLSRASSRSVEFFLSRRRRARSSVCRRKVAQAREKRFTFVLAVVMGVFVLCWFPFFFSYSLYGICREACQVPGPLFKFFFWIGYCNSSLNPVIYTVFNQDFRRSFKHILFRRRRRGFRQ

[16] = biological target: Adenosine receptor A3 (Homo sapiens) (UniProt P0DMS8); conditions: Compound concentration 10.0 uM
Sequence of Adenosine receptor A3 (Homo sapiens) (P0DMS8 whole entry): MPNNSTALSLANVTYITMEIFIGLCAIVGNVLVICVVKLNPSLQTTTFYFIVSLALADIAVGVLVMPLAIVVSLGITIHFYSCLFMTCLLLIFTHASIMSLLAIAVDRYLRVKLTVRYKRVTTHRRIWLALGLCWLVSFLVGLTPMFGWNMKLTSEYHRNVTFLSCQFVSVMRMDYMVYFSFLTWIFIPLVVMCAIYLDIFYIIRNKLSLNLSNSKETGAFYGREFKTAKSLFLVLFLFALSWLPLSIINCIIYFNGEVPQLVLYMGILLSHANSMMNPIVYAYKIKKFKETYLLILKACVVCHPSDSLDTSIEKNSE

[17] = biological target: Endothelin-1 receptor (Homo sapiens) (UniProt P25101); conditions: Compound concentration 10.0 uM
[18] = biological target: D(1A) dopamine receptor (Homo sapiens) (UniProt P21728); conditions: Compound concentration 10.0 uM
Sequence of D(1A) dopamine receptor (Homo sapiens) (P21728 whole entry): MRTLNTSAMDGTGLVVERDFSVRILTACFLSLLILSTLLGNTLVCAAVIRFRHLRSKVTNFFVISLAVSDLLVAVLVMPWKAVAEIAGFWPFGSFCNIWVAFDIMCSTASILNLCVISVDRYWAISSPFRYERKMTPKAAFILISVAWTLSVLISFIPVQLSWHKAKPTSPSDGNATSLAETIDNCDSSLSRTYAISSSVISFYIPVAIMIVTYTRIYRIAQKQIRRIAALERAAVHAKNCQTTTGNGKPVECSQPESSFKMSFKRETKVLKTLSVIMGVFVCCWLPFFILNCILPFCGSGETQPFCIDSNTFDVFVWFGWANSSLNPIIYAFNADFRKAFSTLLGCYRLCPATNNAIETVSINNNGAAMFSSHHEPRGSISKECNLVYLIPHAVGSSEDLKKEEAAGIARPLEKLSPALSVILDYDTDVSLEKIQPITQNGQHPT

[19] = biological target: T1, Muscarinic acetylcholine receptor M1 (Homo sapiens); assay: Muscarinic M1 Eurofins-Panlabs radioligand binding assay; conditions: Compound concentration 10.0 uM
[20] = biological target: Mu-type opioid receptor (Homo sapiens) (UniProt P35372); conditions: Compound concentration 10.0 uM
Sequence of Mu-type opioid receptor (Homo sapiens) (P35372 whole entry): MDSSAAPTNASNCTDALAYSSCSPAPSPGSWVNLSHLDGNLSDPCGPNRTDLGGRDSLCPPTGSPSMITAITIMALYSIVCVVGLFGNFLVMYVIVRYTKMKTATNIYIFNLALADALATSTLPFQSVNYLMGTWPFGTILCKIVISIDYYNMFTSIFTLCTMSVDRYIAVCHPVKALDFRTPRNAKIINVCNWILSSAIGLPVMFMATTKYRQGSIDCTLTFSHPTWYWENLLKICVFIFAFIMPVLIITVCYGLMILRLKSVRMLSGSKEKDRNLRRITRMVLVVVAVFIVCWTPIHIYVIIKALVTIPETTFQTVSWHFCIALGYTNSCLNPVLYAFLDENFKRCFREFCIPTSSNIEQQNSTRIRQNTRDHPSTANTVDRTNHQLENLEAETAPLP

Rattus norvegicus [21] = species: Rattus norvegicus; conditions: Compound concentration 10.0 uM
[22] = biological target: Beta-2 adrenergic receptor (Homo sapiens, UniProt P07550); conditions: Compound concentration 10.0 uM
Rattus norvegicus [23] = species: Rattus norvegicus; assay: Testosterone Eurofins-Panlabs radioligand binding assay; parameters: ligand concentration 1.5 nM; conditions: Compound concentration 10.0 uM
[24] = biological target: Type-2 angiotensin II receptor (Homo sapiens) (UniProt P50052); assay: Angiotensin AT2 Eurofins-Panlabs radioligand binding assay; assay type: protein assay; conditions: Compound concentration 10.0 uM
Sequence of Type-2 angiotensin II receptor (Homo sapiens) (P50052 whole entry): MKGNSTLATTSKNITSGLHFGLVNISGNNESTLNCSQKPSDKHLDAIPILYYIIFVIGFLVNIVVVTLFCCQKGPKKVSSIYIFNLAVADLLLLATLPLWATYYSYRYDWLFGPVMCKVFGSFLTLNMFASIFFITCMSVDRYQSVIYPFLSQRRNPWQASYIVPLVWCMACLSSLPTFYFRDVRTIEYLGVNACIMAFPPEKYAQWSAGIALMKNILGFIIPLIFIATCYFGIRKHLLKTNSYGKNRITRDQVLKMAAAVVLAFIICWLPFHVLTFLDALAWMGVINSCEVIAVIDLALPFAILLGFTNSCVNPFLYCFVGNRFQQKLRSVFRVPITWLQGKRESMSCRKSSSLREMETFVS

[25] = biological target: Sigma intracellular receptor 2 (Homo sapiens) (UniProt Q5BJF2); conditions: Compound concentration 10.0 uM
[26] = biological target: Progesterone receptor (Homo sapiens) (UniProt P06401); assay: Inhibition of Progesterone PR-B at 10 µM in the Eurofins-Panlabs radioligand binding assay (Eurofins_assay_268020); parameters: ligand concentration 1.4 nM; conditions: Compound concentration 10.0 uM
[27] = biological target: Endothelin receptor type B (Homo sapiens) (UniProt P24530); conditions: Compound concentration 10.0 uM
[28] = biological target: 5-hydroxytryptamine receptor 1E (Homo sapiens) (UniProt P28566); conditions: Compound concentration 10.0 uM
Sequence of 5-hydroxytryptamine receptor 1E (Homo sapiens) (P28566 whole entry): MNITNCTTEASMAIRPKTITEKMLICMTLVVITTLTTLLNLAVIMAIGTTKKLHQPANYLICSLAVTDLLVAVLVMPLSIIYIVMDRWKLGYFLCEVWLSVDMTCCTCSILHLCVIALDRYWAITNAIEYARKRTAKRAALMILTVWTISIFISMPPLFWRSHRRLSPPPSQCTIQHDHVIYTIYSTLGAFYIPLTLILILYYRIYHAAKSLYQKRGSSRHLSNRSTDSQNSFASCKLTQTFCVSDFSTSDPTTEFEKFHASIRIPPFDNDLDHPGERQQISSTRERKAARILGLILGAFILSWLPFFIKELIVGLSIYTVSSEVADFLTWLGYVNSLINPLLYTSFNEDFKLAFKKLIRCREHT

[29] = biological target: Muscarinic acetylcholine receptor M3 (Homo sapiens) (UniProt P20309); assay: Muscarinic M3 Eurofins-Panlabs radioligand binding assay; conditions: Compound concentration 10.0 uM
[30] = biological target: 5-hydroxytryptamine receptor 1D (Homo sapiens) (UniProt P28221); conditions: Compound concentration 10.0 uM
Rattus norvegicus [31] = species: Rattus norvegicus; assay: Inhibition of Glycine, Strychnine-Sensitive at 10 µM in the Eurofins-Panlabs radioligand binding assay (Eurofins_assay_239000); conditions: Compound concentration 10.0 uM
Rattus norvegicus [32] = species: Rattus norvegicus; assay: Inhibition of Glutamate, NMDA, Phencyclidine at 10 µM in the Eurofins-Panlabs radioligand binding assay (Eurofins_assay_233000); assay type: protein-complex assay; conditions: Compound concentration 10.0 uM

Sequence of Vasopressin V1b receptor (Homo sapiens) (P47901 whole entry): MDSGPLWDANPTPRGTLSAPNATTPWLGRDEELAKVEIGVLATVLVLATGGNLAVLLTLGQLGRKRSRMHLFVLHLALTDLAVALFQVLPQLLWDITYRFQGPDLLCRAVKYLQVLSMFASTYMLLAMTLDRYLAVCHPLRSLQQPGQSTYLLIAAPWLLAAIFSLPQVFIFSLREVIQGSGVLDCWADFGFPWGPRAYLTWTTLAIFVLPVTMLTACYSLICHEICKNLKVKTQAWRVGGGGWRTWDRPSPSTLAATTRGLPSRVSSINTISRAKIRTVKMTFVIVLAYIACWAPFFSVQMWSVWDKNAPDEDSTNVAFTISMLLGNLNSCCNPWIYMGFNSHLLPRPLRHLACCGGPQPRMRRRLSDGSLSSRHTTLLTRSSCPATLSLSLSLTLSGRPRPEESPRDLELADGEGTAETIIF

| SMILES | inhibition [1] [%] | inhibition [2] [%] | inhibition (D(3) dopamine receptor) [%] | inhibition [3] [%] | inhibition [4] [%] | inhibition [5] [%] | inhibition [6] [%] | inhibition (Rattus norvegicus [7]) [%] | inhibition [8] [%] | inhibition [9] [%] | inhibition [10] [%] | inhibition [11] [%] | inhibition [12] [%] | inhibition (Rattus norvegicus [13]) [%] | inhibition [14] [%] | inhibition [15] [%] | inhibition [16] [%] | inhibition [17] [%] | inhibition [18] [%] | inhibition [19] [%] | further results |
| --- | --- | --- | --- | --- | --- | --- | --- | --- | --- | --- | --- | --- | --- | --- | --- | --- | --- | --- | --- | --- | --- |
| Cc1cc(OC2CCS(=O)(=O)CC2)cc(C)c1-c1cccc(COc2ccc(CCC(=O)O)c(F)c2)c1 | -4 | 19.3 | 59.6 | 15.8 | 5 | 0 | 3 | -2 | 6.06 | 8 | 14 | 16.6 | 10.2 | 8 | 4 | 5.47 | 5 | -2 | 24 | -9 | inhibition [20]: 5%; inhibition (Rattus norvegicus [21]): -4%; inhibition [22]: 3%; inhibition (Rattus norvegicus [23]): 17%; inhibition [24]: -4%; inhibition [25]: 19.6%; inhibition [26]: 10%; inhibition [27]: 0%; inhibition [28]: 3.83%; inhibition [29]: 4%; inhibition [30]: 35.8%; inhibition (Rattus norvegicus [31]): 7%; inhibition (Rattus norvegicus [32]): -4% |
| Cc1cc(OC2CCS(=O)(=O)CC2)cc(C)c1-c1cccc(COc2ccc(C(=O)O)c(F)c2)c1 | -4 | 23.2 | 7.34 | -1.5 | 10 | -4 | 7 | -1 | -5.96 | -8 | 1 | 8.6 | 4.04 | 6 | -3 | -4.04 | 0 | -2 | -3 | -7 | inhibition [20]: 10%; inhibition (Rattus norvegicus [21]): 7%; inhibition [22]: -7%; inhibition (Rattus norvegicus [23]): 26%; inhibition [24]: 1%; inhibition [25]: 1.49%; inhibition [26]: 6%; inhibition [27]: 15%; inhibition [28]: -1.42%; inhibition [29]: 1%; inhibition [30]: 29.5%; inhibition (Rattus norvegicus [31]): 5%; inhibition (Rattus norvegicus [32]): 5% |
